In brackets after ≈: the same amount, converted by molar mass. Like-named read-outs stand apart in the source and are kept apart here.
Tests used:
[1] = system: Bacillus subtilis ATCC 6633; assay: MIC by agar plate dilution method; format: cell-based; settings: ATCC6633, 10^6 CFU/ml, 37° C., 18 hours
Experimental: (§1) Test Method: In accordance with a standard method by Japan Chemotherapeutic Society [Chemotherapy, 29(1), pages 76-79, 1981], agar plate dilution method was used and the MIC was measured. Thus, bouillon for measuring sensitivity was used and the bacterial liquid cultured at 37° C. for 18 hours was diluted to an extent of 10^6 CFU/ml using said medium. This was inoculated to an agar medium containing drug for measuring sensitivity using a microplanter, cultured at 37° C. for 18 hours, and MIC was measured. Ofloxacin was used for comparison/control.
(§2) The compound of Example 2 was used as representative of the compounds of the present invention and ofloxacin was used as the Comparison/Control.

[2] = system: Escherichia coli N1JH JC-2; assay: MIC by agar plate dilution method; format: cell-based
Experimental: as §1, §2

[3] = system: Klebsiella pneumoniae NCTC 9632; assay: MIC by agar plate dilution method; format: cell-based
Experimental: as §1, §2

[4] = system: Proteus mirabilis IFO 3849; assay: MIC by agar plate dilution method; format: cell-based; settings: IFO3849, 10^6 CFU/ml, 37° C., 18 hours
Experimental: as §1, §2

[5] = system: Pseudomonas aeruginosa IFO 3445; assay: MIC by agar plate dilution method; format: cell-based; settings: IFO3445, 10^6 CFU/ml, 37° C., 18 hours
Experimental: as §1, §2

[6] = system: Serratia marcescens IFO 3736; assay: MIC by agar plate dilution method; format: cell-based; settings: IFO3736, 10^6 CFU/ml, 37° C., 18 hours
Experimental: as §1, §2

[7] = system: Shigella flexneri 2a EW-10; assay: MIC by agar plate dilution method; format: cell-based; settings: 2AEW10, 10^6 CFU/ml, 37° C., 18 hours
Experimental: as §1, §2

[8] = system: Staphylococcus aureus 209-P JC-1; assay: MIC by agar plate dilution method; format: cell-based; settings: 10^6 CFU/ml, 37° C., 18 hours
Experimental: as §1, §2

[9] = system: Streptococcus pneumoniae Type I; assay: MIC by agar plate dilution method; format: cell-based; settings: 10^6 CFU/ml, 37° C., 18 hours
Experimental: as §1, §2

[10] = system: Streptococcus pyogenes S-23; assay: MIC by agar plate dilution method; format: cell-based; settings: S23, 10^6 CFU/ml, 37° C., 18 hours
Experimental: as §1, §2

[11] = system: E. coli KC-14; assay: Therapeutic effect on infection in mice, E. coli; format: in vivo, ddY strain male mice; settings: E. coli KC-14, 5.1×10^4 CFU/mouse i.p.; drug orally once 2 hours after inoculation; survival after one week, Probit method
Experimental: (§3) Test method: E. coli KC-14 and P. aeruginosa E-2 were suspended in 5% mucin and 0.5 ml of the suspension was injected intraperitoneally to ddY strain male mice (body weight: ca. 20 g; four weeks age; 10 mice per group). The amount of the bacteria inoculated was 5.1×10^4 CFU/mouse for E. coli and 7.5×10^4 CFU/mouse for P. aeruginosa. The drug was given orally once after 2 hours of inoculation and, out of the survival rate after one week, an ED50 was calculated by a Probit method. Ofloxacin was used as the comparison/control.

[12] = system: P. aeruginosa E-2; assay: Therapeutic effect on infection in mice, P. aeruginosa; format: in vivo, ddY strain male mice; settings: P. aeruginosa E-2, 7.5×10^4 CFU/mouse i.p.; drug orally once 2 hours after inoculation; survival after one week, Probit method
Experimental: as §3

SMILES: CC1COc2c(N3CCN(C)CC3)c(F)cc3c(=O)c(C(=O)O)cn1c23 (racemic) [Ofloxacin, reference compound]
- MIC [1]: 0.1 mg/L (≈ 0.277 µM)
- MIC ([2]; N1JHJC2, Escherichia coli N1JH JC-2, 10^6 CFU/ml, 37° C., 18 hours, read-out: MIC): 0.1 mg/L (≈ 0.277 µM)
- MIC ([3]; NCTC9632, Klebsiella pneumoniae NCTC 9632, 10^6 CFU/ml, 37° C., 18 hours, read-out: MIC): 0.05 mg/L (≈ 0.138 µM)
- MIC [4]: 0.39 mg/L (≈ 1.08 µM)
- MIC [5]: 1.56 mg/L (≈ 4.32 µM)
- MIC [6]: 0.78 mg/L (≈ 2.16 µM)
- MIC [7]: 0.025 mg/L (≈ 0.0692 µM)
- MIC [8]: 0.39 mg/L (≈ 1.08 µM)
- MIC [9]: 1.56 mg/L (≈ 4.32 µM)
- MIC [10]: 1.56 mg/L (≈ 4.32 µM)
- ED50 [11]: 0.011 mg/mouse
- ED50 [12]: 0.692 mg/mouse

SMILES: CCOC(=O)c1c2n(c3cc(N4CCN(Cc5oc(=O)oc5C)CC4)c(F)cc3c1=O)C(C)S2 (stereo not drawn) [Example 1, Ethyl 6-fluoro-1-methyl-7-[4-(5-methyl-2-oxo-1,3-dioxolen-4yl)methyl-1-piperazinyl]-4oxo-4H-[1,3-]thiazeto[3,2-a]quinoline-3-carboxylate]
- ED50 [12]: 0.354 mg/mouse

SMILES: Cc1oc(=O)oc1CN1CCN(c2cc3c(cc2F)c(=O)c(C(=O)O)c2n3C(C)S2)CC1 (stereo not drawn) [Example 2]
- MIC [1]: 0.05 mg/L (≈ 0.108 µM)
- MIC ([2]; Escherichia coli, N1JHJC2, 18 h): 0.0125 mg/L (≈ 0.0271 µM)
- MIC ([3]; Klebsiella pneumoniae, NCTC9632, 18 h): 0.0125 mg/L (≈ 0.0271 µM)
- MIC [4]: 0.025 mg/L (≈ 0.0542 µM)
- MIC [5]: 0.2 mg/L (≈ 0.433 µM)
- MIC [6]: 0.2 mg/L (≈ 0.433 µM)
- MIC [7]: 0.0125 mg/L (≈ 0.0271 µM)
- MIC [8]: 0.1 mg/L (≈ 0.217 µM)
- MIC [9]: 0.39 mg/L (≈ 0.845 µM)
- MIC [10]: 0.39 mg/L (≈ 0.845 µM)
- ED50 [11]: 0.0078 mg/mouse
- ED50 [12]: 0.154 mg/mouse

SMILES: Cc1oc(=O)oc1CN1CCN(c2cc3c(cc2F)c(=O)c(C(=O)O)c2n3C(C)S2)CC1.Cl (stereo not drawn) [Example 3, 6-Fluoro-1-methyl-7-[4-(5-methyl-2-oxo-1,3-dioxolen-4-yl)methyl-1-piperazinyl]-4-oxo-4H-[1,3]thiazeto[3,2-a]quinoline-3-carboxylic acid hydrochloride]
- ED50 [11]: 0.0078 mg/mouse
- ED50 [12]: 0.125 mg/mouse

SMILES: CS(=O)(=O)O.Cc1oc(=O)oc1CN1CCN(c2cc3c(cc2F)c(=O)c(C(=O)O)c2n3C(C)S2)CC1 (stereo not drawn) [Example 4, 6-Fluoro-1-methyl-7-[4-(5-methyl-2-oxo-1,3-dioxolen-4-yl)methyl-1-piperazinyl]-4-oxo-4H-[1,3]thiazeto[3,2-a]quinoline-3-carboxylic acid methanesulfonate]
- ED50 [11]: 0.0078 mg/mouse
- ED50 [12]: 0.125 mg/mouse

SMILES: Cc1oc(=O)oc1CN1CCN(c2c(F)cc3c(=O)c(C(=O)O)c4n(c3c2F)C(C)S4)CC1 (stereo not drawn) [Example 8, 6,8-Difluoro-1-methyl-7-[4-(5-methyl-2-oxo-1,3-dioxolen-4-yl)methyl-1-piperazinyl]-4-oxo-4-[1,3]-thiazeto[3,2-a]quinoline-3-carboxylic acid]
- ED50 [11]: 0.0078 mg/mouse
- ED50 [12]: 0.125 mg/mouse

SMILES: COc1c(N2CCN(Cc3oc(=O)oc3C)CC2)c(F)cc2c(=O)c(C(=O)O)c3n(c12)C(C)S3 (stereo not drawn) [Example 14, 6-Fluoro-8-methoxy-1-methyl-7-[4-(5-methyl-2-oxo-1,3-dioxolen-4-yl)methyl-1-piperazinyl]-4-oxo-4H-[1,3]-thiazeto[3,2-a]quinoline-3-carboxylic acid]
- ED50 [11]: 0.0152 mg/mouse
- ED50 [12]: 0.427 mg/mouse

Source: US5086049A, “7[4-(5 methyl-2-oxo-1,3-dioxalen-4-yl)methyl 1-piperzinyl]-4-oxo-4H-[1,3]thiazeto[3,2-a]quinoline-3-carboxylic acids” (Nipponshinyaku Co., Ltd., priority 1987, dated 1992)
